From the NIST ThermoML archive (doi:10.1021/je900550v)

Conditions: 101.33 kPa, Liquid; for speed of sound: Pulse-echo method; for mass density: Vibrating tube method

CCCC(=O)[O-].C[NH2+]CCO [N-methyl-2-hydroxyethylammonium butanoate]
Conditions	mass density [kg/m3]	speed of sound [m/s]	viscosity [mPa·s]
278.15 K	1052.71	1683.5	–
278.4 K	1052.55	1682.5	–
278.65 K	1052.38	1681.5	–
278.9 K	1052.21	1680.6	–
279.15 K	1052.04	1679.6	–
279.4 K	1051.88	1678.7	–
279.65 K	1051.71	1677.7	–
279.9 K	1051.54	1676.8	–
280.15 K	1051.38	1675.8	–
280.4 K	1051.21	1674.8	–
280.65 K	1051.04	1673.9	–
280.9 K	1050.88	1673	–
281.15 K	1050.71	1672	–
281.4 K	1050.54	1671.1	–
281.65 K	1050.38	1670.1	–
281.9 K	1050.21	1669.2	–
282.15 K	1050.02	1668.4	–
282.4 K	1049.85	1667.4	–
282.65 K	1049.69	1666.6	–
282.9 K	1049.52	1665.7	–
283.15 K	1049.35	1664.8	–
283.4 K	1049.19	1663.8	–
283.65 K	1049.02	1663	–
283.9 K	1048.85	1662.1	–
284.15 K	1048.68	1661.2	–
284.4 K	1048.52	1660.3	–
284.65 K	1048.35	1659.4	–
284.9 K	1048.18	1658.5	–
285.15 K	1048.02	1657.7	–
285.4 K	1047.85	1656.8	–
285.65 K	1047.68	1655.9	–
285.9 K	1047.52	1655	–
286.15 K	1047.35	1654.2	–
286.4 K	1047.18	1653.3	–
286.65 K	1047.01	1652.4	–
286.9 K	1046.85	1651.6	–
287.15 K	1046.68	1650.7	–
287.4 K	1046.51	1649.9	–
287.65 K	1046.34	1649	–
287.9 K	1046.17	1648.1	–
288.15 K	1046.01	1647.3	609.15
288.4 K	1045.84	1646.5	–
288.65 K	1045.67	1645.6	–
288.9 K	1045.5	1644.8	–
289.15 K	1045.34	1643.9	–
289.4 K	1045.17	1643	–
289.65 K	1045	1642.2	–
289.9 K	1044.83	1641.4	–
290.15 K	1044.66	1640.5	516.28
290.4 K	1044.5	1639.7	–
290.65 K	1044.33	1638.9	–
290.9 K	1044.16	1638	–
291.15 K	1043.99	1637.2	–
291.4 K	1043.82	1636.3	–
291.65 K	1043.65	1635.5	–
291.9 K	1043.48	1634.7	–
292.15 K	1043.32	1633.9	–
292.4 K	1043.15	1633.1	–
292.65 K	1042.98	1632.3	–
292.9 K	1042.81	1631.5	–
293.15 K	1042.64	1630.6	433.8
293.4 K	1042.47	1629.8	–
293.65 K	1042.3	1629	–
293.9 K	1042.13	1628.2	–
294.15 K	1041.96	1627.4	–
294.4 K	1041.79	1626.6	–
294.65 K	1041.63	1625.7	–
294.9 K	1041.45	1624.9	–
295.15 K	1041.29	1624.1	–
295.4 K	1041.12	1623.3	–
295.65 K	1040.95	1622.5	352.2
295.9 K	1040.78	1621.7	–
296.15 K	1040.61	1620.9	–
296.4 K	1040.44	1620.1	–
296.65 K	1040.27	1619.3	–
296.9 K	1040.1	1618.5	–
297.15 K	1039.93	1617.7	–
297.4 K	1039.76	1617	–
297.65 K	1039.59	1616.1	–
297.9 K	1039.42	1615.3	–
298.15 K	1039.24	1614.5	298.95
298.4 K	1039.08	1613.8	–
298.65 K	1038.9	1613	–
298.9 K	1038.73	1612.2	–
299.15 K	1038.56	1611.4	–
299.4 K	1038.39	1610.6	–
299.65 K	1038.22	1609.8	–
299.9 K	1038.05	1609	–
300.15 K	1037.88	1608.2	–
300.4 K	1037.71	1607.4	–
300.65 K	1037.54	1606.6	256.7
300.9 K	1037.37	1605.8	–
301.15 K	1037.2	1605	–
301.4 K	1037.03	1604.2	–
301.65 K	1036.87	1603.4	–
301.9 K	1036.7	1602.6	–
302.15 K	1036.54	1601.8	–
302.4 K	1036.38	1601	–
302.65 K	1036.2	1600.2	–
302.9 K	1036.04	1599.5	–
303.15 K	1035.87	1598.7	219.16
303.4 K	1035.71	1597.9	–
303.65 K	1035.54	1597.1	–
303.9 K	1035.38	1596.3	–
304.15 K	1035.21	1595.5	–
304.4 K	1035.04	1594.8	–
304.65 K	1034.88	1594	–
304.91 K	1034.71	1593.2	–
305.15 K	1034.54	1592.4	–
305.4 K	1034.38	1591.6	–
305.45 K	–	–	186.26
305.65 K	1034.21	1590.8	–
305.9 K	1034.04	1590.1	–
306.15 K	1033.88	1589.3	–
306.4 K	1033.71	1588.5	–
306.65 K	1033.54	1587.7	–
306.9 K	1033.38	1587	–
307.15 K	1033.2	1586.2	–
307.4 K	1033.04	1585.4	–
307.65 K	1032.87	1584.6	–
307.9 K	1032.7	1583.8	–
